Measurements published in US20120302503A1, “PEPTIDES FOR PREVENTING OR TREATING A DISEASE OR DISORDER ASSOCIATED WITH CBP OR p300 MISREGULATION, AND METHODS FOR USE AND IDENTIFICATION THEREOF” (AML Therapeutics, LLC, priority 2011, published 2012).
Like-named read-outs stand apart in the source and are kept apart here. Square brackets hold non-standard residues; d marks the D form. Peptide text beside a SMILES is read from it. d(pS) = N[C@H](COP(=O)(O)O)C(=O)O; pS = N[C@@H](COP(=O)(O)O)C(=O)O; dNle = CCCC[C@@H](N)C(=O)O

System: THP-1 cell line
Assay: Cell proliferation assay (Promega Cell Titer-Glo) using cell line THP-1
Assay type: cell-based
Method: To determine the in vitro IC50 of two peptides, and a positive control, cisplatin, against the THP-1 cell line, cell growth is determined using Promega's Cell Titer-Glo® assay. THP-1 tumor cells are placed in a 96-well microculture plate (Costar white, flat bottom #3917) at 20,000 cells per well, in a total volume of 90 μL/well. After 24 hours of incubation in a humidified incubator at 37 C with 5% CO2 and 95% air, 10 μL of 10×, serially diluted test agents in growth medium are added to each well. […] 100 μL of Cell Titer-Glo® reagent are added to each well. The plate is shaken for 2 minutes and then left to equilibrate for 10 minutes before determining luminescence on a Tecan GENios microplate reader. Percent inhibition of cell growth is calculated relative to untreated control wells. All tests are performed in duplicate at each concentration level. The IC50 value for the test agents is estimated using Prism 3.03 by curve-fitting the data using the following four parameter-logistic equation: where Top is the maximal % of control absorbance, Bottom is the minimal % of control absorbance at the highest agent concentration, Y is the % of control absorbance, X is the agent concentration, IC50 is the concentration of agent that inhibits cell growth by 50% compared to the control cells, and n is the slope of the curve.

| SMILES | IC50 (24 h) | IC50 (THP-1 tumor cells, 96 total hours of culture, Cell Titer-Glo luminescence, Table 1, read-out: IC50 values) | IC50 (THP-1 tumor cells, 96 total hours of culture, Cell Titer-Glo luminescence, Table 2, read-out: IC50 values) |
| --- | --- | --- | --- |
| CC[C@@H](C)[C@@H](NC(=O)[C@@H](CCCCN)NC(=O)[C@@H](CCC(=O)O)NC(=O)[C@@H](CC(C)C)NC(=O)[C@@H](CCC(=O)O)NC(=O)[C@@H](CC(C)C)NC(=O)[C@@H](CC(C)C)NC(=O)[C@@H](CC(C)C)NC(=O)[C@@H](CCSC)NC(=O)[C@@H](CO)NC(=O)[C@H](NC(=O)[C@@H](CCC(=O)O)NC(=O)[C@@H](CC(N)=O)NC(=O)[C@@H](CCC(=O)O)NC(=O)[C@@H](CC(C)C)NC(=O)CNC(=O)[C@@H](Cc1ccc(O)cc1)NC(=O)CNC(=O)[C@@H](CCCNC(=N)N)NC(=O)[C@@H](CCCCN)NC(=O)[C@@H](CCCCN)NC(=O)[C@@H](CCCNC(=N)N)NC(=O)[C@@H](CCCNC(=N)N)NC(=O)[C@@H](CCC(N)=O)NC(=O)[C@@H](CCCNC(=N)N)NC(=O)[C@@H](CCCNC(=N)N)NC(=O)[C@H](N)CCCNC(=N)N)[C@H](C)O)C(=O)N[C@H](CCCNC(=N)N)C(N)=O [SEQ ID NO: 16, dR dR dR dQ dR dR dK dK dR G dY G dL dE dN dE dT dS dM dL dL dL dE dL dE dK dI dR amide] (H-[dR][dR][dR][dQ][dR][dR][dK][dK][dR]G[dY]G[dL][dE][dN][dE][dT][dS][dM][dL][dL][dL][dE][dL][dE][dK][dI][dR]-NH2; N-terminus assumed) | 21.6 µM |  |  |
| CC[C@@H](C)[C@@H](NC(=O)[C@@H](CC(C)C)NC(=O)[C@@H](CC(N)=O)NC(=O)[C@@H](CC(=O)O)NC(=O)[C@@H](CC(C)C)NC(=O)[C@@H](CCSC)NC(=O)[C@@H](CO)NC(=O)[C@H](NC(=O)[C@@H](CCC(=O)O)NC(=O)[C@@H](CC(N)=O)NC(=O)[C@@H](CCC(=O)O)NC(=O)[C@@H](CC(C)C)NC(=O)CNC(=O)[C@@H](CCCNC(=N)N)NC(=O)[C@@H](CCCNC(=N)N)NC(=O)[C@@H](CCCNC(=N)N)NC(=O)[C@@H](CCCNC(=N)N)NC(=O)[C@@H](CCCNC(=N)N)NC(=O)[C@@H](CCCNC(=N)N)NC(=O)[C@@H](CCCNC(=N)N)NC(=O)[C@@H](CCCNC(=N)N)NC(=O)[C@H](N)CCCNC(=N)N)[C@H](C)O)C(=O)N[C@H](CCCCN)C(=O)N[C@H](CCCNC(=N)N)C(=O)N[C@H](Cc1ccc(O)cc1)C(=O)N[C@H](COP(=O)(O)O)C(=O)NCC(N)=O [SEQ ID NO: 13, dR dR dR dR dR dR dR dR dR G dL dE dN dE dT dS dM dL dD dN dL dI dK dR dY dpS G amide] (H-[dR][dR][dR][dR][dR][dR][dR][dR][dR]G[dL][dE][dN][dE][dT][dS][dM][dL][dD][dN][dL][dI][dK][dR][dY][d(pS)]G-NH2; N-terminus assumed) | 17.5 µM |  |  |
| N.N.[Cl][Pt][Cl] [Cisplatin, cisplatin, reference compound] |  | 1.6 µM | 1.6 µM |
| CCCC[C@@H](NC(=O)[C@@H](CCSC)NC(=O)[C@@H](CO)NC(=O)[C@H](NC(=O)[C@@H](CCC(=O)O)NC(=O)[C@@H](CC(N)=O)NC(=O)[C@@H](CCC(=O)O)NC(=O)[C@@H](CC(C)C)NC(=O)CNC(=O)[C@@H](CCCNC(=N)N)NC(=O)[C@@H](CCCNC(=N)N)NC(=O)[C@@H](CCCNC(=N)N)NC(=O)[C@@H](CCCNC(=N)N)NC(=O)[C@@H](CCCNC(=N)N)NC(=O)[C@@H](CCCNC(=N)N)NC(=O)[C@@H](CCCNC(=N)N)NC(=O)[C@@H](CCCNC(=N)N)NC(=O)[C@H](N)CCCNC(=N)N)[C@H](C)O)C(=O)N[C@H](CC(=O)O)C(=O)N[C@H](CC(N)=O)C(=O)N[C@H](CC(C)C)C(=O)N[C@@H](C(=O)N[C@H](CCCCN)C(=O)N[C@H](CCCNC(=N)N)C(=O)N[C@H](Cc1ccc(O)cc1)C(=O)N[C@@H](COP(=O)(O)O)C(=O)NCC(N)=O)[C@H](C)CC [SEQ ID NO: 15, dR dR dR dR dR dR dR dR dR G dL dE dN dE dT dS dM dNIe dD dN dL dI dK dR dY pS G amide] (H-[dR][dR][dR][dR][dR][dR][dR][dR][dR]G[dL][dE][dN][dE][dT][dS][dM][dNle][dD][dN][dL][dI][dK][dR][dY][pS]G-NH2; N-terminus assumed) | 14.1 µM |  |  |
| CC[C@@H](C)[C@@H](NC(=O)[C@@H](CC(C)C)NC(=O)[C@@H](CC(N)=O)NC(=O)[C@@H](CC(=O)O)NC(=O)[C@@H](CC(C)C)NC(=O)[C@@H](CCSC)NC(=O)[C@@H](CO)NC(=O)[C@H](NC(=O)[C@@H](CCC(=O)O)NC(=O)[C@@H](CC(N)=O)NC(=O)[C@@H](CCC(=O)O)NC(=O)[C@@H](CC(C)C)NC(=O)CNC(=O)[C@@H](CCCNC(=N)N)NC(=O)[C@@H](CCCNC(=N)N)NC(=O)[C@@H](CCCNC(=N)N)NC(=O)[C@@H](CCCNC(=N)N)NC(=O)[C@@H](CCCNC(=N)N)NC(=O)[C@@H](CCCNC(=N)N)NC(=O)[C@@H](CCCNC(=N)N)NC(=O)[C@@H](CCCNC(=N)N)NC(=O)[C@H](N)CCCNC(=N)N)[C@H](C)O)C(=O)N[C@H](CCCCN)C(=O)N[C@H](CCCNC(=N)N)C(=O)N[C@H](Cc1ccc(O)cc1)C(=O)N[C@@H](COP(=O)(O)O)C(=O)NCC(N)=O [SEQ ID NO: 14, dR dR dR dR dR dR dR dR dR G dL dE dN dE dT dS dM dL dD dN dL dI dK dR dY pS G amide] (H-[dR][dR][dR][dR][dR][dR][dR][dR][dR]G[dL][dE][dN][dE][dT][dS][dM][dL][dD][dN][dL][dI][dK][dR][dY][pS]G-NH2; N-terminus assumed) | 13.9 µM |  |  |
